Assay [1] deals with T1, BRAF (Homo sapiens, UniProt P15056).
T1 construct: purchased Invitrogen
Nature of the assay: Z'-LYTE kinase inhibition assay against BRAF. In kind it is biochemical. The note with it: Z'-LYTE method. The method, then: (§1) Inhibitory activities Inhibitory activities of compounds against BRAF, and BRAF V600E were measured by Invitrogen using Z′-LYTE® Method as briefly described in the following. 4× Test compounds are dissolved in 1% DMSO. […] ATP solutions are diluted to a 4×ATP working concentration in Kinase Buffer (50 mM HEPES pH 7.5, 0.01% BRIJ-35, 10 mM MgCl2, 1 mM EGTA). Reaction started by 30-second shaking of mixture consisting of 2.5 μL 4× test compound, […] and 2.5 μL 4×ATP Solution on Bar-coded Corning, low volume NBS, black 384-well plate (Corning Cat. #3676). Then the mixture was incubated for 60-minute at room temperature for the kinase reaction, followed by addition of 5 μL of a 1:1024 dilution of development reagent A and 30-second plate shake. The mixture was then incubated for another 60-minute at room temperature for development reaction. Fluorescence was read by plate reader. IC50 was calculated by plotting the concentration of compound vs the percentage of inhibition in treated wells using GraphPad Prism 5.
(§2) Table 2 and 3 show % inhibition at 1 μM of several compounds of the invention against BRAF and BRAF V600E, respectively, using Z′-LYTE® method.

Assay [2] addresses T2, BRAF V600E (Homo sapiens, UniProt P15056, V600E).
T2 construct: purchased Invitrogen
Nature of the assay: Z'-LYTE kinase inhibition assay against BRAF V600E. The format is biochemical. The conditions noted are these: % inhibition at 1 μM, Z'-LYTE method. The method, then: as §1, §2
The scale utilized in Table 4 is as follows: +++ less than 100 nM; and ++ greater than 100 nM.

Assay [3] has as its target T3, KDR (VEGFR2) (Homo sapiens, UniProt P35968).
T3 construct: purchased Invitrogen
Kind of assay: Z'-LYTE kinase inhibition assay against KDR. The format is biochemical. The note with it: Z'-LYTE method. The method, then: Inhibitory activities of compounds against KDR (VEGFR2) were also measured by Invitrogen using Z′-LYTE® Method as described above with the following modification. The 2×KDR (VEGFR2)/Tyr 01 mixture is prepared in 50 mM HEPES pH 7.5, 0.01% BRIJ-35, 10 mM MgCl2, 1 mM EGTA. The final 10 μL Kinase Reaction consists of 0.5-11.7 ng KDR (VEGFR2) and 2 μM Tyr 01 in 50 mM HEPES pH 7.5, 0.01% BRIJ-35, 10 mM MgCl2, 1 mM EGTA. After the 1 hour Kinase Reaction incubation, 5 μL of a 1:256 dilution of Development Reagent B is added.
The scale utilized in Table 6 is as follows: +++ less than 100 nM; and ++ greater than 100 nM

For assay [4], the system named is A375 cells. Kind of assay: Inhibition of cancer cell growth, MTT or MTS assay, A375. The note with it: Homo sapiens, A-375, 72 h incubation. The format is cell-based. The method, then:
(§3) Inhibition of cell growth by compounds was measured using MTT or MTS assay. Tumor cell lines were purchased from ATCC (American Type Culture Collection, Manassas, Va.). All cell lines were maintained in RPMI 1640 (Hyclone) supplemented with 10% fetal bovine serum (FBS, Hyclone), glutamine (2 mM, Hyclone), and antibiotics (penicillin 100 U/mL and streptomycin 50 μg/mL) at 37° C. in a humidified atmosphere of 5% CO2 in air. Taxol (as a positive control, Sigma) and compounds were dissolved in DMSO (Sigma), and the final concentration of DMSO in the medium was 1%. Tumor cells were plated in 96-well plates at densities of about 2000 (A375) or 4000 (A549 and Colo205) cells/well of a 96-well plate and allowed to adhere/grow for 24 h. They were then treated with various concentrations of drug and incubated for 72 h. For MTT method, medium was then removed by inverting and tapping the plates. 100 μL of MTT (0.5 mg/ml) was added to each well followed by an incubated at 37° C. for 4 h. MTT was then removed and 200 μL of DMSO was added to each well, and the ODs at 570 nm were measured after a 5 second shaking cycle in a 96-well spectrophotometer. For MTS method, 20 μL MTS (CellTiter 96 Aqueous One Solution, Promega) was added to each well followed by an incubated at 37° C. for 2-4 h, solutions were then directly put in a 96-well spectrophotometer, and the ODs at 490 nm were measured.
(§4) All concentrations of compounds were tested in triplicate and controls were averaged over 4 wells. IC50 was calculated by plotting the concentration of compound vs the percentage of inhibition in treated wells using GraphPad Prism 5. […] The scale utilized in Tables 7-9 is as follows: +++ less than 1000 nM; ++ between 1000 nM and 5000 nM; and + greater than 5000 nM. The scale utilized in […]
Background: Tetrazolium assays rely on reduction of a dye to a coloured formazan, in cell work by metabolically active cells.

For assay [5], the system named is A549 cells. Nature of the assay: Inhibition of cancer cell growth, MTT or MTS assay, A549. In kind it is cell-based. The conditions noted are these: Homo sapiens, 72 h incubation. The method, then: as §3, §4
For assay [6], the system named is Colo205 cells. Nature of the assay: Inhibition of cancer cell growth, MTT or MTS assay, Colo205. The format is cell-based. The note with it: Homo sapiens, COLO 205, 72 h incubation. The method, then:
as §3, §4

The structures appear in SMILES notation.

We go through 15 compounds from US10047059B2, “Substituted quinoxalines for inhibiting kinase activity” (NEUPHARMA, INC., priority 2012, dated 2018).

T2 sequence (P15056 whole entry V600E): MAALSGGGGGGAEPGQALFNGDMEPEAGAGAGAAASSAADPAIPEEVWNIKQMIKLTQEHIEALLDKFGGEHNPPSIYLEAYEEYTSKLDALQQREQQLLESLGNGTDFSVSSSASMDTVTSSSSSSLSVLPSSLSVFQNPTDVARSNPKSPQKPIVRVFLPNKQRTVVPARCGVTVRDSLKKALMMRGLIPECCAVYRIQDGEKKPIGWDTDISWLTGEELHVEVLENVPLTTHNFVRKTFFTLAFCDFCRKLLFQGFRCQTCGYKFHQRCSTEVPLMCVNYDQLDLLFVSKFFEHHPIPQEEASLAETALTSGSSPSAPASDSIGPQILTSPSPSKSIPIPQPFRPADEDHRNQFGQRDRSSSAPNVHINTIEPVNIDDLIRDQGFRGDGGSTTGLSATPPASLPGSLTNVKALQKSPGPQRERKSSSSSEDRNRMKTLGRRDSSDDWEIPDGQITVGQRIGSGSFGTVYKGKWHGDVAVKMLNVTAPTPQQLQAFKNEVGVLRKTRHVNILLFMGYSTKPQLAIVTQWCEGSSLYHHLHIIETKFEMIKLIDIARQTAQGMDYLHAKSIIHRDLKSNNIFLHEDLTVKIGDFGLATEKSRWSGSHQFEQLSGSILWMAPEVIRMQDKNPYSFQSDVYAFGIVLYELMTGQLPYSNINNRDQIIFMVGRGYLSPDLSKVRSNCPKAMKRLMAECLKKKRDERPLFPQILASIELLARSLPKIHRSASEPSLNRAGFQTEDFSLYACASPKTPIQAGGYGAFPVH
T3 sequence (P35968 20-1356): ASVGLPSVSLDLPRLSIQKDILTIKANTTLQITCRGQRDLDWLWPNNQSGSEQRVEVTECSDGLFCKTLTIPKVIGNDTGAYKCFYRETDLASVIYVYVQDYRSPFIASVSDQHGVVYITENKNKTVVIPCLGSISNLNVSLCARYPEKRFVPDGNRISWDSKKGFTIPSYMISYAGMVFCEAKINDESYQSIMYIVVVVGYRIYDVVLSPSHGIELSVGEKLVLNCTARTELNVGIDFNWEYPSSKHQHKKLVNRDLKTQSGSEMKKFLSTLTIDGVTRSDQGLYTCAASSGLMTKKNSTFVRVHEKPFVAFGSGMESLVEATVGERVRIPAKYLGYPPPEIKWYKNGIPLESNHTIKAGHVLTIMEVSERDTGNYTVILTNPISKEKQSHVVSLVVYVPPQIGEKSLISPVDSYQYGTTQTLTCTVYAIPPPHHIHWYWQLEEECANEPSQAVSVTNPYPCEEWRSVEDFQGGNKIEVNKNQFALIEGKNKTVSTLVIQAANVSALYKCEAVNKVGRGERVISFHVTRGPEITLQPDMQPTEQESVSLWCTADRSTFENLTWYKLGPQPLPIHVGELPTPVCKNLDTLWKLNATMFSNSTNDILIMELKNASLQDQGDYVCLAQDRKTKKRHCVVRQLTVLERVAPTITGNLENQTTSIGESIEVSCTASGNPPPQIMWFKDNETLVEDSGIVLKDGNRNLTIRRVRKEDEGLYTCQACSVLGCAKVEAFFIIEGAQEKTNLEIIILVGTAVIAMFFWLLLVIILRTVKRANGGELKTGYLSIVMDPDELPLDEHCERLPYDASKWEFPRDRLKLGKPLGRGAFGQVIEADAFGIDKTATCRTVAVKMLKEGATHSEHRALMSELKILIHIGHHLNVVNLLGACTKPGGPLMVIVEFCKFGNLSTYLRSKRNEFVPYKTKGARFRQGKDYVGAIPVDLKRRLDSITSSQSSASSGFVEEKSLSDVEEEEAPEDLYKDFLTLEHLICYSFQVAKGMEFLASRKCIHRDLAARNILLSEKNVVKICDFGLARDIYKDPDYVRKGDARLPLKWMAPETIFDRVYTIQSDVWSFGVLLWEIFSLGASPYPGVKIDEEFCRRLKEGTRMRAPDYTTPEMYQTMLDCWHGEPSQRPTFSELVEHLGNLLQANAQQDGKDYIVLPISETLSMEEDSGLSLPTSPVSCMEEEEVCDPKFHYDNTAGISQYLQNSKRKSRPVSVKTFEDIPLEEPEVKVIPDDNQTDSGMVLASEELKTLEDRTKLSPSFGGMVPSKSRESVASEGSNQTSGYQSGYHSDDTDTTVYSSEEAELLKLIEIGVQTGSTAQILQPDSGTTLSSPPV
T1 sequence (P15056 whole entry): as the sequence (P15056 whole entry V600E) above, with E600V counted along it

The inhibition is how much of the control response was suppressed. What is called IC50 is the concentration needed to halve the response being measured. Higher therefore signals weaker potency. With `O=C(Nc1ccc(C(=O)c2ccc3nccnc3c2)cc1)Nc1cccc(C(F)(F)F)c1` [Compound C01, 1-(4-(quinoxaline-6-carbonyl)phenyl)-3-(3-(trifluoromethyl)phenyl)urea], the values for the inhibition at 1 µM in assay [1], in assay [2] and in assay [3] were less than 70%, more than 89% and less than 70%, respectively. The IC50 in assay [4] was 1000 to 5000 nM; in assay [5] it was more than 5 µM; in assay [6] it was more than 5 µM.
Take `O=C(Nc1ccc(C(=O)c2ccc3nccnc3c2)cc1)Nc1cccc(F)c1` [Compound C02, 1-(3-fluorophenyl)-3-(4-(quinoxaline-6-carbonyl)phenyl)urea]: the inhibition at 1 µM in assay [1], in assay [2] and in assay [3] was less than 70% in each case. The IC50 is 1000 to 5000 nM in assay [4] and 1 to 5 µM in assay [5].
For `O=C(Nc1ccc(C(=O)c2ccc3ncc(N4CCOCC4)nc3c2)cc1)Nc1cccc(Cl)c1` [Compound C03, 1-(3-chlorophenyl)-3-(4-(3-morpholinoquinoxaline-6-carbonyl)phenyl)urea], the inhibition at 1 µM in assay [1], in assay [2] and in assay [3] was less than 70% each time. For the same compound, the IC50 in assay [4] is 1000 to 5000 nM; in assay [5], 1 to 5 µM.
`O=C(Nc1ccc(Cl)cc1)Nc1ccc(C(=O)c2ccc3ncc(N4CCOCC4)nc3c2)cc1` [Compound C04, 1-(4-chlorophenyl)-3-(4-(3-morpholinoquinoxaline-6-carbonyl)phenyl)urea]: the inhibition at 1 µM in assay [1], in assay [2] and in assay [3] was less than 70% in each case. Besides, the IC50 in assay [5] is 1 to 5 µM.
As to `O=C(Nc1ccc(F)cc1)Nc1ccc(C(=O)c2ccc3ncc(N4CCOCC4)nc3c2)cc1` [Compound C05, 1-(4-fluorophenyl)-3-(4-(3-morpholinoquinoxaline-6-carbonyl)phenyl)urea], the inhibition at 1 µM in assay [1], in assay [2] and in assay [3] was less than 70% in each case. Further, the IC50 is more than 5000 nM in assay [4] and more than 5 µM in assay [5].
In the case of `O=C(Nc1ccc(F)cc1)Nc1ccc(C(=O)c2ccc3ncc(N4CCNCC4)nc3c2)cc1` [Compound C10, 1-(4-fluorophenyl)-3-(4-(3-(piperazin-1-yl)quinoxaline-6-carbonyl)phenyl)urea], the values for the inhibition at 1 µM in assay [1], in assay [2] and in assay [3] were less than 70%, more than 89% and less than 70%, respectively. Further, the IC50 in assay [4] was in the range of 1000 to 5000 nM; in assay [5], 1 to 5 µM.
`O=C(Nc1ccc(C(=O)c2ccc3ncc(N4CCNCC4)nc3c2)cc1)Nc1ccc(C(F)(F)F)cc1` [Compound C13, 1-(4-(3-(piperazin-1-yl)quinoxaline-6-carbonyl)phenyl)-3-(4-(trifluoromethyl)phenyl)urea]: the results for the inhibition at 1 µM in assay [1], in assay [2] and in assay [3] were less than 70%, more than 89% and less than 70%, respectively. Besides, the IC50 in assay [4] is less than 1000 nM; in assay [5], 1 to 5 µM.
In the case of `O=C(Nc1ccc(C(=O)c2ccc3ncc(N4CCNCC4)nc3c2)cc1)Nc1cccc(F)c1` [Compound C19, 1-(3-fluorophenyl)-3-(4-(3-(piperazin-1-yl)quinoxaline-6-carbonyl)phenyl)urea], the inhibition at 1 µM was less than 70% in assay [1], more than 89% in assay [2] and less than 70% in assay [3]. Also, the values for the IC50 in assay [4] and in assay [5] were 1000 to 5000 nM and 1 to 5 µM, respectively.
For `O=C(Nc1cccc(F)c1)Nc1ccc(C(=O)c2ccc3ncc(N4CCNCC4)nc3c2)c(F)c1` [Compound C20, 1-(3-fluoro-4-(3-(piperazin-1-yl)quinoxaline-6-carbonyl)phenyl)-3-(3-fluorophenyl)urea], the figures for the inhibition at 1 µM in assay [1], in assay [2] and in assay [3] were less than 70%, more than 89% and less than 70%, respectively. In addition, the IC50 in assay [4] is 1000 to 5000 nM; in assay [5], more than 5 µM.
On to `O=C(Nc1cccc(C(F)(F)F)c1)Nc1ccc(C(=O)c2ccc3ncc(N4CCOCC4)nc3c2)c(F)c1` [Compound C24, 1-(3-fluoro-4-(3-morpholinoquinoxaline-6-carbonyl)phenyl)-3-(3-(trifluoromethyl)phenyl)urea], for which the inhibition at 1 µM was less than 70% in assay [2] and 70 to 89% in assay [3]. The figures for the IC50 in assay [4] and in assay [5] were 1000 to 5000 nM and 1 to 5 µM, respectively.
For `N#Cc1ccc(CC(=O)Nc2ccc(C(=O)c3ccc4ncc(N5CCNCC5)nc4c3)c(F)c2)cc1C(F)(F)F` [Compound C26, 2-(4-cyano-3-(trifluoromethyl)phenyl)-N-(3-fluoro-4-(3-(piperazin-1-yl)quinoxaline-6-carbonyl)phenyl)acetamide], the values for the inhibition at 1 µM in assay [1], in assay [2] and in assay [3] were less than 70%, more than 89% and more than 89%, respectively. In addition, the results for the IC50 in assay [3], in assay [4] and in assay [5] were less than 100 nM, less than 1000 nM and less than 1 µM, respectively.
With `O=C(Nc1ccc(C(=O)c2ccc3ncc(C4CCNCC4)nc3c2)cc1)Nc1cccc(C(F)(F)F)c1` [Compound C27, 1-(4-(3-(piperidin-4-yl)quinoxaline-6-carbonyl)phenyl)-3-(3-(trifluoromethyl)phenyl)urea], the values for the inhibition at 1 µM in assay [2] and in assay [3] were 70 to 89% and less than 70%, respectively. For the same compound, the IC50 is more than 5000 nM in assay [4] and more than 5 µM in assay [5].
As for `O=C(Nc1ccc(C(=O)c2ccc3ncc(C4CCNCC4)nc3c2)cc1)Nc1ccc(F)c(C(F)(F)F)c1` [Compound C28, 1-(4-fluoro-3-(trifluoromethyl)phenyl)-3-(4-(3-(piperidin-4-yl)quinoxaline-6-carbonyl)phenyl)urea], the inhibition at 1 µM in assay [1] is less than 70%; in assay [2], 70 to 89%; in assay [3], less than 70%. The IC50 in assay [4] is 1000 to 5000 nM; in assay [5], more than 5 µM.
For `N#Cc1cnc2ccc(C(=O)c3ccc(NC(=O)Nc4cccc(C(F)(F)F)c4)cc3F)cc2n1` [Compound C29, 1-(4-(3-cyanoquinoxaline-6-carbonyl)-3-fluorophenyl)-3-(3-(trifluoromethyl)phenyl)urea], the inhibition at 1 µM in assay [2] and in assay [3] was less than 70% each time. The IC50 in assay [4] was in the range of 1000 to 5000 nM; in assay [5] it was 1 to 5 µM.
In the case of `Cn1ccc(NC(=O)Nc2ccc(C(=O)c3ccc4ncc(N5CCNCC5)nc4c3)c(F)c2)n1` [Compound C31, 1-(3-fluoro-4-(3-(piperazin-1-yl)quinoxaline-6-carbonyl)phenyl)-3-(1-methyl-1H-pyrazol-3-yl)urea], the figures for the inhibition at 1 µM in assay [2] and in assay [3] were 70 to 89% and less than 70%, respectively. In addition, the IC50 in assay [4] was 1000 to 5000 nM; in assay [5], more than 5 µM.
